This is an account of results in ChEMBL document CHEMBL5038636, “Dihydrolucilactaene, a Potent Antimalarial Compound from Fusarium sp. RK97-94” (J Nat Prod, 2022).

The subject of one experiment is Escherichia coli. Nature of the experiment: Antibacterial activity against Escherichia coli HO141 assessed as growth inhibition. Format: functional, organism-based.
A further experiment relates to Staphylococcus aureus. As to the kind of experiment: Antibacterial activity against Staphylococcus aureus 209 assessed as growth inhibition. It counts as functional, organism-based.
For a further experiment, the system named is Aspergillus fumigatus. Nature of the experiment: Antifungal activity against Aspergillus fumigatus Af293 assessed as growth inhibition. It counts as functional, organism-based.
Another experiment relates to Candida albicans. Nature of the experiment: Antifungal activity against Candida albicans JCM1542 assessed as growth inhibition. It counts as functional, organism-based.
The test system of experiment [1] is Plasmodium falciparum. Nature of the experiment: Antimalarial activity against wild-type Plasmodium falcipuram 3D7 assessed as growth inhibition. It counts as functional, organism-based.
In another experiment the test system is HL-60. As to the kind of experiment: Cytotoxicity against human HL-60 cells assessed as growth inhibition. Format: functional, cell-based.
The next experiment has as its system HeLa. Nature of the experiment: Cytotoxicity against human HeLa cells assessed as growth inhibition. Format: functional, cell-based.
A further experiment deals with Pyricularia oryzae. Nature of the experiment: Antifungal activity against Pyricularia oryzae kita-1 assessed as growth inhibition. Format: functional, organism-based.
A further experiment concerns T98G. As to the kind of experiment: Cytotoxicity against human T98G cells assessed as growth inhibition. It counts as functional, cell-based.
The test system of a further experiment is MKN-74. As to the kind of experiment: Cytotoxicity against human MKN74 cells assessed as growth inhibition. Format: functional, cell-based.
Experiment [2] deals with Plasmodium falciparum. As to the kind of experiment: Antimalarial activity against chloroquine-resistant Plasmodium falcipuram K1 assessed as growth inhibition. It counts as functional, organism-based.

pIC50: −log10 of the molar value.

For `C\C=C(/C=C(C)/C=C/C=C/C=C(\C)C(=O)[C@H]1C(=O)N[C@]2(O)CCO[C@H]12)C(=O)OC`, the pIC50 with Escherichia coli was less than 4.15; with Staphylococcus aureus, less than 4.15; with Aspergillus fumigatus, less than 4.15; in the experiment with Candida albicans, less than 4.15; in the experiment on Plasmodium falciparum [1] it was 6.82; in the experiment with HL-60, 4.76. The negative logarithm of the IC50 (pIC50) in the experiment with HeLa was 4.60; in the experiment with Pyricularia oryzae, less than 4.15.

`C\C=C(/C=C(C)/C=C/C=C/C=C(\C)C(=O)[C@]12O[C@H]1[C@@](O)(CCO)NC2=O)C(=O)OC`: the pIC50 in the experiment with Escherichia coli is less than 4.15; in the experiment with Staphylococcus aureus, less than 4.15; with Aspergillus fumigatus, less than 4.15; in the experiment on Candida albicans it was less than 4.15; in the experiment on Plasmodium falciparum [1], 5.74; in the experiment with HL-60, 4.80. The pIC50 is 4.85 in the experiment with HeLa and less than 4.15 with Pyricularia oryzae.

Turning to `C\C=C(/C=C(C)/C=C/C=C/C=C(\C)C(=O)C1C[C@@](O)(CCO)NC1=O)C(=O)OC` (some centres not stated), the pIC50 in the experiment with T98G, in the experiment on Escherichia coli, with MKN-74, with Staphylococcus aureus, in the experiment on Aspergillus fumigatus and in the experiment on Candida albicans was less than 4.15 each time. Moreover, the negative-log IC50 (pIC50) with Plasmodium falciparum [2] was 8.82; with Plasmodium falciparum [1], 8.82; in the experiment with HL-60, 4.42; in the experiment with HeLa, 4.67; in the experiment on Pyricularia oryzae it was 5.17.

In the case of `C\C=C(/C=C(C)/C=C/C=C/C=C(\C)C(=O)[C@H]1C(=O)N[C@]2(O)CCO[C@H]12)C(=O)O`, the negative logarithm of the IC50 (pIC50) in the experiment with Escherichia coli is less than 4.15; with Staphylococcus aureus it was less than 4.15; in the experiment on Aspergillus fumigatus it was less than 4.15; in the experiment on Candida albicans, less than 4.15; with Plasmodium falciparum [1], 4.36; in the experiment on HL-60 it was less than 4.15. Also, the negative-log IC50 (pIC50) with HeLa and in the experiment on Pyricularia oryzae was less than 4.15 in each case.

Take `C\C=C(/C=C(C)/C=C/C=C/C=C(\C)C(=O)[C@@]1(O)C(=O)N[C@]2(O)CCO[C@H]12)C(=O)OC`: the pIC50 with Plasmodium falciparum [1] is 6.17; with HL-60, less than 4.15; in the experiment with HeLa it was less than 4.15.

On to `C\C=C(/C=C(C)/C=C/C=C/C=C(\C)C(O)[C@]12O[C@H]1[C@@](O)(CCO)NC2=O)C(=O)OC` (some centres not stated), for which the pIC50 in the experiment on T98G, in the experiment with Escherichia coli, in the experiment on MKN-74, with Staphylococcus aureus, in the experiment with Aspergillus fumigatus and in the experiment with Candida albicans was less than 4.15 throughout. Moreover, the pIC50 in the experiment on Plasmodium falciparum [1] is 4.21; with HL-60, less than 4.15; in the experiment with HeLa it was less than 4.15; in the experiment with Pyricularia oryzae, less than 4.15.

Regarding `C[C@@H]1[C@H](O)[C@@H](C)/C=C/C=C/C=C/C=C/C=C/C=C/C=C/[C@H](O[C@@H]2O[C@H](C)[C@@H](O)[C@H](N)[C@@H]2O)C[C@@H]2O[C@](O)(C[C@@H](O)C[C@@H](O)[C@H](O)CC[C@@H](O)C[C@@H](O)CC(=O)O[C@H]1C)C[C@H](O)[C@H]2C(=O)O` [AMPHOTERICIN B], the figures for the negative-log IC50 (pIC50) in the experiment with Aspergillus fumigatus, with Candida albicans and with Pyricularia oryzae were 6.68, 7.52 and 6.80, respectively.

As for `C[C@@H]1CC[C@H]2[C@@H](C)C(=O)O[C@@H]3O[C@@]4(C)CC[C@@H]1[C@]32OO4` [ARTEMISININ], the negative-log IC50 (pIC50) in the experiment on Plasmodium falciparum [1] is 7.72.

Turning to `O=C(N[C@H](CO)[C@H](O)c1ccc([N+](=O)[O-])cc1)C(Cl)Cl` [CHLORAMPHENICOL], the results for the negative logarithm of the IC50 (pIC50) in the experiment with Escherichia coli and in the experiment on Staphylococcus aureus were 5.34 and 5.27, respectively.

Take `CC(=O)O[C@H]1C(=O)[C@@]2(C)[C@H]([C@H](OC(=O)c3ccccc3)[C@]3(O)C[C@H](OC(=O)[C@H](O)[C@@H](NC(=O)c4ccccc4)c4ccccc4)C(C)=C1C3(C)C)[C@]1(OC(C)=O)CO[C@@H]1C[C@@H]2O` [PACLITAXEL]: the negative logarithm of the IC50 (pIC50) in the experiment with T98G is 5.06; in the experiment on HL-60 it was 8.66; in the experiment on HeLa it was 8.37.
